Reference: patent US20030212116A1 (priority 1999, published 2003)

- melting point: 57 to 59 °C
Structure (SMILES): COC(=O)Cc1ccccc1N=C1N(C)CC(=O)N1C
